Experimental findings from US9850247B2 (Almac Discovery Limited, priority 2013, dated 2017) are described below.

In experiment [1] the test system is phospho-cdc2 (Tyr15) in HT-29 cells. In words: Effect on Cdc2 phosphorylation at Tyr15, Cell-Based ELISA Base Kit (Method 3). Particulars: eight hours incubation, normalized to total cdc2, read-out: HT29 pCDC2 method 3. The method, then: Method 3: Determining the Effect of Compounds on the Cdc2 phosphorylation at Tyr15, using a Cell-Based ELISA Base Kit (R&D Systems, KCB001)
The colorectal cancer cell line, HT-29 was purchased from the ATCC and maintained in McCoy's 5 A medium (Gibco®, Life technologies) supplemented with 10% Foetal Calf Serum (FCS).
The cells were trypsinised and counted, 100 μL of 8000 cells was seeded into each well of a clear-bottom black 96-well microplate and incubated overnight to allow adherence to the surface, at 37° C. and 5% CO2 in a cell culture incubator.
Test compounds were formulated in DMSO and diluted in cell culture medium supplemented with FCS. Grow medium was removed from cells and medium containing compounds dilutions was added to each well. The plate was returned to the incubator for an additional eight hours of incubation at 37° C. and 5% CO2.
Post incubation cells were fixed by replacing the compounds supplemented medium with 100 μL of 4% formaldehyde in 1× phosphate buffered saline (PBS), for 20 minutes at room temperature. Formaldehyde solution was removed and cells were washed three times with PBS. The Cell-Based ELISA assay (R&D Systems) was carried out immediately after cell fixation or the plate was sealed and fixed cells were stored in PBS at 4° C. until required (no more than two weeks).
To continue the assay, PBS was removed and cells were washed 3 times for 5 minutes with 200 μL of 1× wash buffer. Each wash step was carried out with gentle shaking. Following washes, 100 μL of 0.6% H2O2 in 1× wash buffer (quenching buffer) was added, plate was sealed and incubated for 20 minutes at room temperature. Post incubation cells were washes 3 times for 5 minutes with 200 μL of 1× wash buffer, with gentle shaking. 100 μL of blocking buffer was added to each well, the plate was re-sealed and incubated at room temperature for 1 h.
After blocking, cells were washed as described above. A primary antibody mixture was prepared by mixing the two primary antibodies, a rabbit monoclonal antibody for phospho-cdc2 (Tyr15) (Cell Signaling, #4539) and mouse monoclonal antibody for total cdc2 p34 (Santa Cruz Biotechnology, sc-54), diluted 1:25 and 1:50 in blocking buffer, respectively. 60 μL of primary antibody mixture was added to each well, the plate was sealed and incubated overnight at 4° C.
The primary antibodies were removed and cells were washed as previously described. 100 μL of secondary antibody mixture, containing horseradish-peroxidase (HRP)-conjugated goat anti-rabbit IgG and alkaline phosphatase (AP)-conjugated goat anti-mouse IgG, diluted 1:100 in blocking buffer, was added to each test well. The plate was re-sealed and incubated for 2 hours at room temperature.
The secondary antibodies were removed and cells washed 2 times with wash buffer, followed by 2 washes with PBS. Each wash step was carried out for 5 minutes with gentle shaking. PBS was removed and 75 μL of fluorogenic substrate for HRP (substrate F1) added to each well. The plate was sealed and incubated for 1 h at room temperature, in the dark. 75 μL of fluorogenic substrate for AP (substrate F2) was added directly to each well, plate re-sealed and incubated for additional 40 minutes at room temperature, protected from direct light.
Following incubation fluorescence from each well was read at 600 nm (signal from substrate 1, phosphorylated protein) and then at 450 nm (signal from substrate 2, total protein).
The percentage of phospho-cdc2 was calculated compared to DMSO control, normalized to the total cdc2 and plotted versus the concentration of inhibitor, using GraphPad Prism. Data was fitted using a non-linear regression analysis and EC50 values generated.
A general note: An ELISA detects its analyte on a solid surface through an enzyme-linked reagent.

A further experiment has as its target T1, Wee-1 kinase (Homo sapiens, UniProt P30291).
T1 construct: purchased Invitrogen PV3817
In words: Measurement of Wee-1 kinase activity (ADP-Glo luminescent kit). It is filed as biochemical. In a few lines: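 Activated Wee-1 was pre-incubated 30 min at RT with compound in 40 mM Tris-HCl, 20 mM MgCl2, 0.1 mg/mL BSA and 2 mM DTT. The reaction was started with an aliquot of 2.0 μg/mL poly(Lys,Tyr 4:1) plus 30 μM ATP and run 1 h at RT. ADP-Glo luminescence gave IC50 by non-linear fit.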

Molecules are shown by their SMILES. Read-outs that look alike come from different tables or passages of the source.

As a reminder, the IC50 is the concentration at which inhibition is half-maximal.

T1 sequence (P30291 whole entry): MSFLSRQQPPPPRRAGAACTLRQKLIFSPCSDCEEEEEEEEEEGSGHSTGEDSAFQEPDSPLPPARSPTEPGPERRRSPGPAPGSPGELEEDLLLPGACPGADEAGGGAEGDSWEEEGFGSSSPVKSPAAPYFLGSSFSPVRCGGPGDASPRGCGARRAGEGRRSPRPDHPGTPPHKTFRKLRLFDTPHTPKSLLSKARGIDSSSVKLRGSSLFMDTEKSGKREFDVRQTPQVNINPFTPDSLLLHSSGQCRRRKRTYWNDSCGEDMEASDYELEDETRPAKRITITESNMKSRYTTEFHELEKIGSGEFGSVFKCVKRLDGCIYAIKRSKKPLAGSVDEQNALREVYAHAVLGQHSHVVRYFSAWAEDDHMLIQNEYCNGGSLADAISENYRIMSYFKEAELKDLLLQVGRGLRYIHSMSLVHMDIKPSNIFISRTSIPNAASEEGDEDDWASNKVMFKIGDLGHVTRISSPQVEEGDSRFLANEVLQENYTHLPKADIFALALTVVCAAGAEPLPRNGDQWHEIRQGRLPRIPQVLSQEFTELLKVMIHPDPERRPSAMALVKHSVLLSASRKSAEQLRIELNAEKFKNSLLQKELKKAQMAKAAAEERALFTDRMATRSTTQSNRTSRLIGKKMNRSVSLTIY

On to `CN1CC=C(c2ccc(Nc3ncc4c(n3)N(C)CN(c3c(Cl)cccc3Cl)C4=O)cc2CO)CC1` [Example 180, 3-(2,6-dichlorophenyl)-7-((3-(hydroxymethyl)-4-(1-methyl-1,2,3,6-tetrahydropyridin-4-yl)phenyl)amino)-1-methyl-2,3-dihydropyrimido[4,5-d]pyrimidin-4(1H)-one], for which, in experiment [1] (Homo sapiens, HT-29, 8 h), the EC50 lay within 0.1 to 1 µM. Also, the IC50 at Wee-1 kinase is at most 0.01 µM.

For the molecule `CN(C)CC(O)c1cccc(Nc2ncc3c(n2)N(C)CN(c2c(Cl)cccc2Cl)C3=O)c1` (stereo not drawn) [Example 172, 3-(2,6-dichlorophenyl)-7-((3-(2-(dimethylamino)-1-hydroxyethyl)phenyl)amino)-1-methyl-2,3-dihydropyrimido[4,5-d]pyrimidin-4(1H)-one], in experiment [1] (Homo sapiens, HT-29, 8 h), the EC50 is at least 1 µM. Also, the half-inhibitory concentration (IC50) at Wee-1 kinase was in the range of 0.01 to 0.1 µM.

`Cc1cc(Nc2ncc3c(n2)N(C)CN(c2c(Cl)cccc2Cl)C3=O)ccc1C1=CCNCC1` [Example 177, 3-(2,6-dichlorophenyl)-1-methyl-7-((3-methyl-4-(1,2,3,6-tetrahydropyridin-4-yl)phenyl)amino)-2,3-dihydropyrimido[4,5-d]pyrimidin-4(1H)-one]: the EC50 in experiment [1] (Homo sapiens, HT-29, 8 h) is 0.1 to 1 µM. Also, the IC50 on Wee-1 kinase is at most 0.01 µM.

Take `C[C@@H]1CN(c2ccc(Nc3ncc4c(n3)N(C)CN(c3ccccc3Cl)C4=O)cc2)C[C@H](C)N1` [Example 103, 3-(2-chlorophenyl)-7-((4-((3S,5R)-3,5-dimethylpiperazin-1-yl)phenyl)amino)-1-methyl-2,3-dihydropyrimido[4,5-d]pyrimidin-4(1H)-one]: the EC50 in experiment [1] (Homo sapiens, HT-29, 8 h) is 0.1 to 1 µM. Moreover, the IC50 on Wee-1 kinase lay within 0.01 to 0.1 µM.

Consider `CNCc1cc(Nc2ncc3c(n2)N(C)CN(c2c(Cl)cccc2Cl)C3=O)ccc1-c1cnn(C)c1` [Example 160, 3-(2,6-dichlorophenyl)-1-methyl-7-((4-(1-methyl-1H-pyrazol-4-yl)-3-((methylamino)methyl)phenyl)amino)-2,3-dihydropyrimido[4,5-d]pyrimidin-4(1H)-one], for which, in experiment [1] (Homo sapiens, HT-29, 8 h), the EC50 is at least 1 µM. Moreover, the 50% inhibitory concentration (IC50) at Wee-1 kinase was 0.01 to 0.1 µM.

On to `CN1CN(c2c(Cl)cccc2Cl)C(=O)c2cnc(Nc3ccc(C4CCN(C5CCC5)CC4)c(CO)c3)nc21` [Example 181, 7-((4-(1-cyclobutylpiperidin-4-yl)-3-(hydroxymethyl)phenyl)amino)-3-(2,6-dichlorophenyl)-1-methyl-2,3-dihydropyrimido[4,5-d]pyrimidin-4(1H)-one], for which, in experiment [1] (Homo sapiens, HT-29, 8 h), the EC50 lay within 0.1 to 1 µM. For the same molecule, the IC50 on Wee-1 kinase was at most 0.01 µM.

In the case of `CN1CN(c2c(Cl)cccc2Cl)C(=O)c2cnc(Nc3ccc4c(c3)C3CCC4N3)nc21` (stereo not drawn) [Example 166, 3-(2,6-dichlorophenyl)-1-methyl-7-((1,2,3,4-tetrahydro-1,4-epiminonaphthalen-6-yl)amino)-2,3-dihydropyrimido[4,5-d]pyrimidin-4(1H)-one], the EC50 in experiment [1] (Homo sapiens, HT-29, 8 h) was at least 1 µM. Further, the IC50 at Wee-1 kinase was in the range of 0.01 to 0.1 µM.

For `CCNCc1cc(Nc2ncc3c(n2)N(C)CN(c2c(Cl)cccc2Cl)C3=O)ccc1N1CCOCC1` [Example 174, 3-(2,6-dichlorophenyl)-7-((3-((ethylamino)methyl)-4-morpholinophenyl)amino)-1-methyl-2,3-dihydropyrimido[4,5-d]pyrimidin-4(1H)-one], the EC50 in experiment [1] (Homo sapiens, HT-29, 8 h) is at least 1 µM. The IC50 on Wee-1 kinase lay within 0.01 to 0.1 µM.

Consider `CN1CN(c2c(Cl)cccc2Cl)C(=O)c2cnc(Nc3ccc(N4CC5COCC(C4)N5)c(CO)c3)nc21` [Example 173, 7-((4-(3-oxa-7,9-diazabicyclo[3.3.1]nonan-7-yl)-3-(hydroxymethyl)phenyl)amino)-3-(2,6-dichlorophenyl)-1-methyl-2,3-dihydropyrimido[4,5-d]pyrimidin-4(1H)-one], for which the EC50 in experiment [1] (Homo sapiens, HT-29, 8 h) lay in the range of 0.1 to 1 µM. Also, the 50% inhibitory concentration (IC50) on Wee-1 kinase was in the range of 0.01 to 0.1 µM.

For `COC[C@H]1CN(c2ccc(Nc3ncc4c(n3)N(C)CN(c3c(Cl)cccc3Cl)C4=O)cc2C(O)C(F)(F)F)CCN1` (single isomer, unassigned) [Example 185], the EC50 in experiment [1] lay in the range of 0.1 to 1 µM. At Wee-1 kinase, the IC50 is at most 0.01 µM.

Regarding `O=C1c2cnc(Nc3ccc(N4CCNCC4)cc3)nc2N(c2ccccc2)CN1c1c(Cl)cccc1Cl` [Example 171, 3-(2,6-dichlorophenyl)-1-phenyl-7-((4-(piperazin-1-yl)phenyl)amino)-2,3-dihydropyrimido[4,5-d]pyrimidin-4(1H)-one], in experiment [1] (Homo sapiens, HT-29, 8 h), the EC50 was 0.1 to 1 µM. Further, the IC50 on Wee-1 kinase was at most 0.01 µM.

In the case of `COC[C@H]1CN(c2ccc(Nc3ncc4c(n3)N(C)CN(c3c(Cl)cccc3Cl)C4=O)cc2C(O)C(F)(F)F)CCN1` (single isomer, unassigned) [Example 184], in experiment [1], the EC50 was at least 1 µM. The half-inhibitory concentration (IC50) at Wee-1 kinase was at most 0.01 µM.

As to `CN1CN(c2c(Cl)cccc2Cl)C(=O)c2cnc(Nc3ccc(N4C[C@@H]5C[C@H]4CN5C)c(CO)c3)nc21` [Example 176, 3-(2,6-dichlorophenyl)-7-((3-(hydroxymethyl)-4-((1S,4S)-5-methyl-2,5-diazabicyclo[2.2.1]heptan-2-yl)phenyl)amino)-1-methyl-2,3-dihydropyrimido[4,5-d]pyrimidin-4(1H)-one], the EC50 in experiment [1] (Homo sapiens, HT-29, 8 h) is 0.1 to 1 µM. In addition, the IC50 on Wee-1 kinase is at most 0.01 µM.

For the molecule `CN1CN(c2c(Cl)cccc2Cl)C(=O)c2cnc(Nc3ccc4c(c3)C3CCC4N3C)nc21` (stereo not drawn) [Example 175, 3-(2,6-dichlorophenyl)-1-methyl-7-((9-methyl-1,2,3,4-tetrahydro-1,4-epiminonaphthalen-6-yl)amino)-2,3-dihydropyrimido[4,5-d]pyrimidin-4(1H)-one], in experiment [1] (Homo sapiens, HT-29, 8 h), the EC50 fell in the range of 0.1 to 1 µM. For the same molecule, the IC50 at Wee-1 kinase was at most 0.01 µM.

For `COC[C@H]1CN(c2ccc(Nc3ncc4c(n3)N(C)CN(c3c(Cl)cccc3Cl)C4=O)cc2C(O)C(F)F)CCN1` (single isomer, unassigned) [Example 163], the EC50 in experiment [1] lay in the range of 0.1 to 1 µM. Also, on Wee-1 kinase, the 50% inhibitory concentration (IC50) was at most 0.01 µM.

For `CN1CN(c2c(Cl)cccc2Cl)C(=O)c2cnc(Nc3ccc(N4C[C@@H]5C[C@H]4CN5)c(CO)c3)nc21` [Example 164, 7-((4-((1S,4S)-2,5-diazabicyclo[2.2.1]heptan-2-yl)-3-(hydroxymethyl)phenyl)amino)-3-(2,6-dichlorophenyl)-1-methyl-2,3-dihydropyrimido[4,5-d]pyrimidin-4(1H)-one], the EC50 in experiment [1] (Homo sapiens, HT-29, 8 h) is at least 1 µM. Further, the IC50 on Wee-1 kinase was at most 0.01 µM.

Turning to `Cc1cc(Nc2ncc3c(n2)N(C)CN(c2c(Cl)cccc2Cl)C3=O)ccc1C1=CCN(C)CC1` [Example 178, 3-(2,6-dichlorophenyl)-1-methyl-7-((3-methyl-4-(1-methyl-1,2,3,6-tetrahydropyridin-4-yl)phenyl)amino)-2,3-dihydropyrimido[4,5-d]pyrimidin-4(1H)-one], the EC50 in experiment [1] (Homo sapiens, HT-29, 8 h) is 0.1 to 1 µM. At Wee-1 kinase, the half-inhibitory concentration (IC50) is at most 0.01 µM.

`CN1CN(c2c(Cl)cccc2Cl)C(=O)c2cnc(Nc3ccc(C4=CCNCC4)c(CO)c3)nc21` [Example 179, 3-(2,6-dichlorophenyl)-7-((3-(hydroxymethyl)-4-(1,2,3,6-tetrahydropyridin-4-yl)phenyl)amino)-1-methyl-2,3-dihydropyrimido[4,5-d]pyrimidin-4(1H)-one]: in experiment [1] (Homo sapiens, HT-29, 8 h), the EC50 is at least 1 µM. Moreover, the half-inhibitory concentration (IC50) at Wee-1 kinase is at most 0.01 µM.
